# Experimental data taken from patent US20020137929A1, “1 - (3-heterocyclylphenyl) isothiourea, -isourea, -guanidine and -amidine herbicidal agents” (Intellectual Property Department, BASF Aktiengesellschaft, priority 1998, published 2002).
# Assays:
# CYPIR (Rice Flatsedge) = assay: Postemergence weed control under flooded paddy conditions; format: in vivo, Cyperus iria; conditions: postemergence weeds, rated 3 to 4 weeks after treatment
# Procedure, shortened: (§1)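 Weeds 3 to 5 cm tall and rice seedlings at the 1.5 to 2.5 leaf stage were flooded, with water held 1.5 to 3 cm above the soil. Compounds in 50/50 v/v aqueous/acetone went into the flood water at about 0.0313 to 0.500 kg/ha. Visual 0-9 ratings versus control were made 3 to 4 weeks later.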
# ECHCG (Barnyardgrass) [1] = assay: Postemergence herbicidal evaluation; format: in vivo, Echinochloa crus-galli; conditions: postemergence
# Procedure, shortened: (§2)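 ~2-wk seedlings; postemergence spray, 40 psi; vehicle 1:1 acetone:water + 0.5% Tween 20; rate ≈0.0156–0.500 kg/ha; greenhouse hold; scored 4–5 wk after treatment, 0–9 scale vs control; repeat tests averaged.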
# SETVI (Foxtail, Green) = assay: Postemergence herbicidal evaluation; format: in vivo, Setaria viridis; conditions: postemergence
# Procedure, shortened: as §2
# [2] = tested on: IPOHE (Morningglory, Ivyleaf); assay: Preemergence herbicidal evaluation; format: in vivo, Ipomoea hederacea; conditions: preemergence, rated 4-5 weeks after treatment, 0-9 scale
# Procedure, shortened: (§3)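 Seeds were mixed with potting soil and planted on about one inch of soil, then sprayed with test compound in aqueous acetone at about 0.0156 to 0.500 kg per hectare. Plants grew under standard greenhouse care and were visually rated 0-9 against untreated controls 4-5 weeks post-treatment.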
# ZEAMX (Corn, Field) [3] = assay: Postemergence herbicidal evaluation; format: in vivo, Zea mays; conditions: postemergence
# Procedure, shortened: as §2
# [4] = tested on: CHEAL (Lambsquarters, Common); assay: Postemergence herbicidal evaluation; format: in vivo, Chenopodium album; conditions: postemergence
# Procedure, shortened: as §2
# CASOB (Sicklepod) = assay: Preemergence herbicidal evaluation; format: in vivo, Cassia obtusifolia; conditions: preemergence, rated 4-5 weeks after treatment, 0-9 scale
# Procedure, shortened: as §3
# ZEAMX (Corn, Field) [5] = assay: Preemergence herbicidal evaluation; format: in vivo, Zea mays; conditions: preemergence, rated 4-5 weeks after treatment, 0-9 scale
# Procedure, shortened: as §3
# [6] = tested on: GLXMAW (Soybean, Williams); assay: Preemergence herbicidal evaluation; format: in vivo, Glycine max, (L.) Merr. cv Williams; conditions: preemergence, rated 4-5 weeks after treatment, 0-9 scale
# Procedure, shortened: as §3
# [7] = tested on: CHEAL (Lambsquarters, Common); assay: Preemergence herbicidal evaluation; format: in vivo, Chenopodium album; conditions: preemergence, rated 4-5 weeks after treatment, 0-9 scale
# Procedure, shortened: as §3
# [8] = tested on: IPOHE (Morningglory, Ivyleaf); assay: Postemergence herbicidal evaluation; format: in vivo, Ipomoea hederacea; conditions: postemergence
# Procedure, shortened: as §2
# [9] = tested on: TRZAWR (Wheat, Winter, cv Riband); assay: Preemergence herbicidal evaluation; format: in vivo, Triticum aestivum; conditions: preemergence, rated 4-5 weeks after treatment, 0-9 scale
# Procedure, shortened: as §3
# CYPSE (Flatsedge) = assay: Postemergence weed control under flooded paddy conditions; format: in vivo, Cyperus serotinus; conditions: postemergence weeds, rated 3 to 4 weeks after treatment
# Procedure, shortened: as §1
# ORYSAT (Rice, Tebonnet) = assay: Postemergence herbicidal evaluation; format: in vivo, Oryza sativa, (L.) Tebonnet; conditions: postemergence
# Procedure, shortened: as §2
# ABUTH (Velvetleaf) [10] = assay: Postemergence herbicidal evaluation; format: in vivo, Abutilon theophrasti; conditions: postemergence
# Procedure, shortened: as §2
# ECHCG (Barnyardgrass) [11] = assay: Preemergence herbicidal evaluation; format: in vivo, Echinochloa crus-galli; conditions: preemergence, rated 4-5 weeks after treatment, 0-9 scale
# Procedure, shortened: as §3
# ABUTH (Velvetleaf) [12] = assay: Preemergence herbicidal evaluation; format: in vivo, Abutilon theophrasti; conditions: preemergence, rated 4-5 weeks after treatment, 0-9 scale
# Procedure, shortened: as §3
compound,measurement,setting,value
"CCS(=O)(=O)NC(=O)CC1SC(=Nc2cc(-n3c(=O)cc(C(F)(F)F)n(C)c3=O)c(F)cc2Cl)N(C)C1=O (stereo not drawn) [Compound 105, 2-{{2-Chloro-5-[3,6-dihydro-3-methyl-2,6-dioxo-4-(trifluoromethyl)-1(2H)-pyrimidinyl]-4-fluorophenyl}imino}-N-(ethylsulfonyl)-3-methyl-4-oxo-5-thiazolidineacetamide]",Herbicidal rating CYPIR,CYPIR (Rice Flatsedge); Rate 0.0313 kg/ha,5.0
same,Herbicidal rating CYPIR,CYPIR (Rice Flatsedge); Rate 0.0625 kg/ha,7.0
same,Herbicidal rating CYPIR,CYPIR (Rice Flatsedge); Rate 0.1250 kg/ha,7.0
same,Herbicidal rating CYPIR,CYPIR (Rice Flatsedge); Rate 0.2500 kg/ha,9.0
same,herbicidal rating ECHCG,ECHCG (Barnyardgrass) [1]; rate 0.0156 kg/ha,0.0
same,herbicidal rating ECHCG,ECHCG (Barnyardgrass) [1]; rate 0.0313 kg/ha,0.0
same,herbicidal rating ECHCG,ECHCG (Barnyardgrass) [1]; rate 0.0625 kg/ha,0.0
same,herbicidal rating ECHCG,ECHCG (Barnyardgrass) [1]; rate 0.1250 kg/ha,3.0
same,herbicidal rating SETVI,"SETVI (Foxtail, Green); rate 0.0156 kg/ha",0.0
same,herbicidal rating SETVI,"SETVI (Foxtail, Green); rate 0.0313 kg/ha",0.0
same,herbicidal rating SETVI,"SETVI (Foxtail, Green); rate 0.0625 kg/ha",2.0
same,herbicidal rating SETVI,"SETVI (Foxtail, Green); rate 0.1250 kg/ha",5.0
same,IPOHE rating,[2]; 0.1250 kg/ha,0.0
same,IPOHE rating,[2]; 0.2500 kg/ha,3.0
same,IPOHE rating,[2]; 0.5000 kg/ha,4.0
same,herbicidal rating ZEAMX,"ZEAMX (Corn, Field) [3]; rate 0.0156 kg/ha",3.5
same,herbicidal rating ZEAMX,"ZEAMX (Corn, Field) [3]; rate 0.0313 kg/ha",5.0
same,herbicidal rating ZEAMX,"ZEAMX (Corn, Field) [3]; rate 0.0625 kg/ha",6.0
same,herbicidal rating ZEAMX,"ZEAMX (Corn, Field) [3]; rate 0.1250 kg/ha",7.0
same,herbicidal rating CHEAL,[4]; rate 0.0156 kg/ha,0.0
same,herbicidal rating CHEAL,[4]; rate 0.0313 kg/ha,0.0
same,herbicidal rating CHEAL,[4]; rate 0.0625 kg/ha,2.0
same,herbicidal rating CHEAL,[4]; rate 0.1250 kg/ha,2.0
same,CASOB rating,CASOB (Sicklepod); 0.1250 kg/ha,0.0
same,CASOB rating,CASOB (Sicklepod); 0.2500 kg/ha,0.0
same,CASOB rating,CASOB (Sicklepod); 0.5000 kg/ha,0.0
same,ZEAMX rating,"ZEAMX (Corn, Field) [5]; 0.1250 kg/ha",0.0
same,ZEAMX rating,"ZEAMX (Corn, Field) [5]; 0.2500 kg/ha",1.0
same,ZEAMX rating,"ZEAMX (Corn, Field) [5]; 0.5000 kg/ha",2.0
same,GLXMAW rating,[6]; 0.1250 kg/ha,0.0
same,GLXMAW rating,[6]; 0.2500 kg/ha,0.0
same,GLXMAW rating,[6]; 0.5000 kg/ha,0.0
same,CHEAL rating,[7]; 0.1250 kg/ha,9.0
same,CHEAL rating,[7]; 0.2500 kg/ha,9.0
same,CHEAL rating,[7]; 0.5000 kg/ha,9.0
same,herbicidal rating IPOHE,[8]; rate 0.0156 kg/ha,5.0
same,herbicidal rating IPOHE,[8]; rate 0.0313 kg/ha,9.0
same,herbicidal rating IPOHE,[8]; rate 0.0625 kg/ha,9.0
same,herbicidal rating IPOHE,[8]; rate 0.1250 kg/ha,9.0
same,TRZAWR rating,[9]; 0.1250 kg/ha,0.0
same,TRZAWR rating,[9]; 0.2500 kg/ha,0.0
same,TRZAWR rating,[9]; 0.5000 kg/ha,0.0
same,Herbicidal rating CYPSE,CYPSE (Flatsedge); Rate 0.0313 kg/ha,2.0
same,Herbicidal rating CYPSE,CYPSE (Flatsedge); Rate 0.0625 kg/ha,5.0
same,Herbicidal rating CYPSE,CYPSE (Flatsedge); Rate 0.1250 kg/ha,7.0
same,Herbicidal rating CYPSE,CYPSE (Flatsedge); Rate 0.2500 kg/ha,9.0
same,herbicidal rating ORYSAT,"ORYSAT (Rice, Tebonnet); rate 0.0156 kg/ha",0.0
same,herbicidal rating ORYSAT,"ORYSAT (Rice, Tebonnet); rate 0.0313 kg/ha",0.0
same,herbicidal rating ORYSAT,"ORYSAT (Rice, Tebonnet); rate 0.0625 kg/ha",0.0
same,herbicidal rating ORYSAT,"ORYSAT (Rice, Tebonnet); rate 0.1250 kg/ha",2.0
same,herbicidal rating ABUTH,ABUTH (Velvetleaf) [10]; rate 0.0156 kg/ha,4.0
same,herbicidal rating ABUTH,ABUTH (Velvetleaf) [10]; rate 0.0313 kg/ha,4.0
same,herbicidal rating ABUTH,ABUTH (Velvetleaf) [10]; rate 0.0625 kg/ha,4.0
same,herbicidal rating ABUTH,ABUTH (Velvetleaf) [10]; rate 0.1250 kg/ha,9.0
same,ECHCG rating,ECHCG (Barnyardgrass) [11]; 0.1250 kg/ha,0.0
same,ECHCG rating,ECHCG (Barnyardgrass) [11]; 0.2500 kg/ha,0.0
same,ECHCG rating,ECHCG (Barnyardgrass) [11]; 0.5000 kg/ha,1.0
same,ABUTH rating,ABUTH (Velvetleaf) [12]; 0.1250 kg/ha,7.0
same,ABUTH rating,ABUTH (Velvetleaf) [12]; 0.2500 kg/ha,9.0
same,ABUTH rating,ABUTH (Velvetleaf) [12]; 0.5000 kg/ha,9.0
